The values that follow come from US7067517B2 (priority 2001, dated 2006).

Broadly, the melting point is the temperature, or range, at which the solid turns liquid.

Tested on in the first data set: not given
Assay: not given
Settings: not given
Consider `CN(C(=O)On1ccnn1)c1ccccc1` [Example 144, Methyl-phenyl-carbamic acid [1,2,3]triazol-1-yl ester], for which the melting point fell in the range of 105 to 106 °C.
On the same count and under the same terms, the figure for `CC(C)(C)Oc1ccc(OC(=O)N2CCOCC2)cc1` [Example 87, Morpholine-4-carboxylic acid 4-tert-butoxy-phenyl ester] is 128.8 to 129.5 °C.

Another data set deals with T1, Hormone-sensitive lipase (HSL) (Homo sapiens, UniProt Q05469).
T1 sequence (Q05469 1-1076): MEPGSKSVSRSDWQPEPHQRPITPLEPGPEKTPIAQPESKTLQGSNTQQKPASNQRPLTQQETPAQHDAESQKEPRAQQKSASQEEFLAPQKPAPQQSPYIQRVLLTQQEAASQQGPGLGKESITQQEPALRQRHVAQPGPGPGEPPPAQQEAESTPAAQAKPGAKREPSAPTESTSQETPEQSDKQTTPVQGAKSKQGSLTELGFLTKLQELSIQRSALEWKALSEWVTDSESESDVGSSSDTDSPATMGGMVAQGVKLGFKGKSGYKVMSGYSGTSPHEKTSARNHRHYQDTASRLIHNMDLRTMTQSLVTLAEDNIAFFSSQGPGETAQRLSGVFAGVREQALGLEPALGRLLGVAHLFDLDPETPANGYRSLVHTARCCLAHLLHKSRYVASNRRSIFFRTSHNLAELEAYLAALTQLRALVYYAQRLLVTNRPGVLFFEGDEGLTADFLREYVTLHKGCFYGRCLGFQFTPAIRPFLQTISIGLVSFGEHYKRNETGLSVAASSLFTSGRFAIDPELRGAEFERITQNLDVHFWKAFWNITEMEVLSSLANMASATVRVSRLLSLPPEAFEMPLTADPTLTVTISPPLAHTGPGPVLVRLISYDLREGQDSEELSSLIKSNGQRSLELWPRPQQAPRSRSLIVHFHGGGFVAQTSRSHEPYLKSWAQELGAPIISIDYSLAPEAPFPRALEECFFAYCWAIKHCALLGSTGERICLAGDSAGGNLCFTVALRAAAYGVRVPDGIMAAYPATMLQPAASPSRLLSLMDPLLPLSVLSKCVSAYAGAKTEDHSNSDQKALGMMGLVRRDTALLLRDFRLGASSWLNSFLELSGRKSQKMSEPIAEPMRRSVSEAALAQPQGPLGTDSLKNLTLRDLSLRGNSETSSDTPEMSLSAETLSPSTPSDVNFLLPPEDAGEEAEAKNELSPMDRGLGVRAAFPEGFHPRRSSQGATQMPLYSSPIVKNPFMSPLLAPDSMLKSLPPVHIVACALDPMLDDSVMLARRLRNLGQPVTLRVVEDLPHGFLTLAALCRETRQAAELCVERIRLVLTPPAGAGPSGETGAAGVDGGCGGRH
Kind of data set: biochemical. Conditions: 10 μM sample concentration; percent activity relative to a non-inhibited sample (no compound). As for the experimental part:
Materials. The Hormone-sensitive lipase was provided by Dr. Cecilia Holm, from Lund University Sweden or produced and purified by Novo Nordisk (NN) using the reagents and protocols used by Dr. Holm. […] All other reagents are of commercial grade and obtained from various commercial sources.
BSA is added as product receptor. The transfer of the fluorochrome from the lipid phase to the water (BSA) phase changes the fluorescent properties of the fluorochrome. The changes can be monitored on a fluorimeter with an excitation wavelength of 450 nm and an emission wavelength of 545 nm.
Compound and HSL (20 μL compound, 10 μL enzyme and 70 μL PED-BSA buffer) is pre-incubated for 30 min at 25° C. before addition of substrate (100 μL). Amount of formed product is measured after 120 min incubation at 37° C.
For `CN(C(=O)Oc1ccc(OC(F)(F)C(F)(F)F)cc1)c1ccccc1` [Example 20], the “Test 3190.1 HSL_FL % ACTIVITY All” value is recorded as 51%.
On the same count and under the same terms, the figure for `O=C(Oc1ccc(Oc2ccc3c(C(F)(F)F)cc(C(F)(F)F)nc3n2)cc1)N1CCOCC1` [Example 90, Morpholine-4-carboxylic acid 4-(5,7-bis-trifluoromethyl-[1,8]naphthypyridin-2-yloxy)-phenyl ester] is 24%.

The same data set, now with this note: 10 μM sample concentration; percent activity relative to a non-inhibited sample (no compound); read-out: Test 3190.1 HSL_FL % ACTIVITY All.
In the case of `O=C(Oc1ccc(Oc2ccc(C(F)(F)F)cn2)cc1)N1CCc2ccccc21` [Example 62, 2,3-Dihydro-indole-1-carboxylic acid 4-(5-trifluoromethyl-pyridin-2-yloxy)-phenyl ester], the activity at 10 µM amounted to 88%.
For the compound `CC(C)(C)Oc1ccc(OC(=O)N2CCOCC2)cc1` [Example 87, Morpholine-4-carboxylic acid 4-tert-butoxy-phenyl ester], the activity at 10 µM came to 48%.
Regarding `COc1ccc(OC)c(-c2c(C)c3ccc(OC(=O)N4CCCc5ccccc54)cc3oc2=O)c1` [Example 81, 3,4-Dihydro-2H-quinoline-1-carboxylic acid 3-(2,5-dimethoxy-phenyl)-4-methyl-2-oxo-2H-chromen-7-yl ester], the activity at 10 µM turned out to be 36%.
Take `Cc1c(Cc2ccccc2)c(=O)oc2cc(OC(=O)N3CCCc4ccccc43)ccc12` [Example 73, 3,4-Dihydro-2H-quinoline-1-carboxylic acid 3-benzyl-4-methyl-2-oxo-2H-chromen-7-yl ester]: the activity at 10 µM is 39%.
Still for that read-out and setting: the figure for `CCN(C(=O)Oc1ccc(Oc2ccc(C(F)(F)F)cc2)cc1)c1ccccc1` [Example 54, Ethyl-phenyl-carbamic acid 4-(4-trifluoromethyl-phenoxy)-phenyl ester] is 52%; for `O=C(Oc1ccc(Oc2c(Cl)cncc2Cl)cc1)N1CCOCC1` [Example 85, Morpholine-4-carboxylic acid 4-(3,5-dichloro-pyridin-4-yloxy)-phenyl ester] it is 88%.

The same data set, now with this note: read-out: Test 3190.1 HSL_FL % ACTIVITY All.
For the compound `CN(C(=O)On1ccnn1)c1ccccc1` [Example 144, Methyl-phenyl-carbamic acid [1,2,3]triazol-1-yl ester], the activity at 10 µM is 25%.
Take `CN(C(=O)Oc1ccc(OC(C)(C)C)cc1)c1ccccc1` [Example 11, Methyl-phenyl-carbamic acid 4-tert-butoxy-phenyl ester]: the activity at 10 µM was 17%.
The same measure, in the same setting: the figure for `CN(C(=O)Oc1ccc(-c2ccc(Br)cc2)cc1)c1ccccc1` [Example 24, Methyl-phenyl-carbamic acid 4′-bromo-biphenyl-4-yl-ester] is 30%; for `COc1ccc(OC)c(-c2c(C)c3ccc(OC(=O)N(C)c4ccccc4)cc3oc2=O)c1` [Example 48, Methyl-phenyl-carbamic acid 3-(2,5-dimethoxy-phenyl)-4-methyl-2-oxo-2H-chromen-7-yl ester] it is 15%; for `COc1ccc(-c2c(C)c3ccc(OC(=O)N(C)c4ccccc4)cc3oc2=O)cc1` [Example 46, Methyl-phenyl-carbamic acid 3-(4-methoxy-phenyl)-4-methyl-2-oxo-2H-chromen-7-yl ester] it is 43%.
For `CN(C(=O)Oc1ccc(Oc2ccc(C(F)(F)F)cn2)cc1)C1CCCCC1` [Example 59, Cyclohexyl-methyl-carbamic acid 4-(5-trifluoromethyl-pyridin-2-yloxy)-phenyl ester], the activity at 10 µM stood at 16%.
On to `Cc1c(-c2ccccc2)c(=O)oc2cc(OC(=O)N(C)c3ccccc3)ccc12` [Example 47, Methyl-phenyl-carbamic acid 4-methyl-2-oxo-3-phenyl-2H-chromen-7-yl ester], for which the activity at 10 µM was 42%.

A further data set concerns the target T1, Hormone-sensitive lipase (HSL). In words: Test 2848.2: high-volume screening assay, para-nitrophenyl butyrate (p-NPB) substrate. Format: biochemical. Conditions: UV-abs 405 nm, 20 min room temp, % Eff (% Inhibition). An excerpt: Materials. The Hormone-sensitive lipase was provided by Dr. Cecilia Holm, from Lund University Sweden or produced and purified by Novo Nordisk (NN) using the reagents and protocols used by Dr. Holm. The substrates used are: ^3H-labeled triolein (TO) from Amersham, Buckinghamshire, U.K. cat No. TRA191; 5–20 Ci/mmol dissolved in toluene, triolein (Sigma, Cat. No. T-1740), fluorochrome-labeled triacylglyceride (cis-octadec-9-enoic acid 2-[12-(7-nitrobenzo[1,2,5]oxadiazol-4-ylamino)dodecanoyloxy]-1-cis-octadec-9-enoyloxymethyl-ethyl ester) prepared by Novo Nordisk (NN) by conventional methods, and 1,3-(di[^3H]-stearin), 2-(PEG-Boitin)glycerol prepared in collaboration with Amersham Pharmacia Biotech, UK and described in WO 01/073442. Phosphatidyl choline (PC) and phosphatidyl inositol (PI) are from Sigma (St Luis Mo. cat. Nos. P-3556 and P-5954 respectively). All other reagents are of commercial grade and obtained from various commercial sources.
2848.2: This high-volume screening assay uses para-nitrophenyl butyrate (p-NPB) as substrate for HSL. HSL cleaves p-NPB and the reaction is monitored as an increase in the concentration of para-nitrophenol (p-NP). p-NP can be monitored as an increase in UV-absorbance at 405 nm. The reaction is carried out at room-temp. for 20 min. The action is not stopped, but instead UV-abs is measured at a fixed time (20 min.) Due to autohydrolysis of the substrate the reaction is read at t=0 min. too and t=20 min. and the increase in Abs is calculated as the difference between the two readings. When a compound that inhibits HSL is present, it results in a relative decrease in UV-absorbance. % Eff(% Inhibition)=(S−S0Eff)/(SmaxEff−S0Eff)×100 Where S=signal in UV-abs., S0Eff=assaybuffer alone, SmaxEff=Assaybuffer with the lipase inhibitor.
For the compound `CC(C)Sc1nnc(OC(=O)N(C)C)n1-c1cccc(C(F)(F)F)c1` [Example 130, Dimethyl-carbamic acid 5-isopropylsulfanyl-4-(3-trifluoromethyl-phenyl)-4H-[1,2,4]triazol-3-yl ester], the “Test 2848.2 HSL % Inhibition All” value worked out at 30.1%.
The same measure, in the same setting: the figure for `O=C(Nc1ccccc1)n1ncc(S(=O)(=O)c2ccc(Cl)cc2)c1-c1ccc(Cl)cc1` [Example 128, N-Phenyl-4-(4-chlorobenzenesulfonyl)-5-(4-chlorophenyl)-pyrazole-1-carboxamide] is 33.8%; for `CCCCCCC(C=Cc1ccc(Cl)cc1)=NOC(=O)NC1CCCCC1` [Example 106, 1-(4-Chlorophenyl)-non-1-en-3-one O-cyclohexylcarbamoyl-oxime] it is 23.8%.
Regarding `O=C(NCCc1ccccc1)n1nc(-c2ccc(Oc3ccccc3)cc2)cc1N1CCOCC1` [Example 127, 5-Morpholin-4-yl-3-(4-phenoxyphenyl)-pyrazole-1-carboxylic acid phenethylamide], the “Test 2848.2 HSL % Inhibition All” value came out at 58.7%.
On to `O=C(Nc1ccc(Cl)cc1)n1nc(-c2ccc(Cl)cc2)cc1CCCO` [Example 126, N-(4-Chlorophenyl)-3-(4-chlorophenyl)-5-(3-hydroxypropyl)-pyrazole-1-carboxamide], for which the “Test 2848.2 HSL % Inhibition All” value amounted to 33%.
Same read-out and setting: the figure for `Cc1ccc(NC(C=O)=NOC(=O)NC2CCCCC2)cc1` [Example 104, 2-Oxo-N-p-tolylacetamide O-(cyclohexylcarbamoyl)-oxime] is 19.8%; for `CN(C)C(=O)Oc1c(-c2ccccc2)cn(Cc2ccccc2)c(=O)c1-c1ccccc1` [Example 131, Dimethyl carbamic acid 1-benzyl-2-oxo-3,5-diphenyl-1,2-dihydro-pyridin-4-yl ester] it is 21.6%.
On the same count and under the same terms, the figure for `COc1ccc2c(OC(=O)N(C)C)cc(=O)n(C)c2c1` [Example 132, Dimethyl-carbamic acid 7-methoxy-1-methyl-2-oxo-1,2-dihydro-quinolin-4-yl ester] is 19.6%; for `CN(C)C(=O)On1nnc2ccccc2c1=O` [Example 116, Dimethylcarbamic acid 4-oxo-1,2,3-benzotriazin-3-yl ester] it is 23.5%.
